In ChEMBL document CHEMBL1201862, “PubChem BioAssay data set” (2004):
Calls of active or inactive are those of the source.

How the values were obtained:
cells = format: functional
HEK293 = assay: optical interference in Abeta FP readout, dose response, artefact control for IDE activator project, biochemical, fluorescence polarization (AID 588442); format: functional, cell-based; settings: Homo sapiens
[1] = inhibitors of firefly luciferase expression or activity, dose response, H4 neuroglioma cells, luminescence (AID 1990); format: functional, cell-based
[2] = molecular target: T1, Mitochondrial peptide methionine sulfoxide reductase (Bos taurus, UniProt P54149); format: functional;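 further: absorbance read-out, biochemical high-throughput dose-response screen for MsrA inhibitors, confirmatory; recombinant bovine MsrA coupled to E. coli TrxB with NADPH and selenocystamine; potency is for inhibitors of MsrA activity on DMSO substrate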
T1 sequence (P54149 whole entry): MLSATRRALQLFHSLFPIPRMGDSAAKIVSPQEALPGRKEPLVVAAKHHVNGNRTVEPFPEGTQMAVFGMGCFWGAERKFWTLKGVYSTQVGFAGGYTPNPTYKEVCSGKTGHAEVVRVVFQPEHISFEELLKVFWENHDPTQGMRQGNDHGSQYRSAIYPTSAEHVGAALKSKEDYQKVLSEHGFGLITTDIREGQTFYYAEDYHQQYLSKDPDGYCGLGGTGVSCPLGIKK

Streptokinase A = molecular target: T2, Streptokinase A (Streptococcus pyogenes serotype M1, UniProt P10520); assay: S. pyogenes streptokinase expression inhibitors, potency, dose response, plasminogen activation absorbance, OD405 (AID 1914); format: functional, Streptococcus pyogenes M1 GAS;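 further: secreted streptokinase activity via plasminogen activation per viability signal from cell pellet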
T2 sequence (P10520 whole entry): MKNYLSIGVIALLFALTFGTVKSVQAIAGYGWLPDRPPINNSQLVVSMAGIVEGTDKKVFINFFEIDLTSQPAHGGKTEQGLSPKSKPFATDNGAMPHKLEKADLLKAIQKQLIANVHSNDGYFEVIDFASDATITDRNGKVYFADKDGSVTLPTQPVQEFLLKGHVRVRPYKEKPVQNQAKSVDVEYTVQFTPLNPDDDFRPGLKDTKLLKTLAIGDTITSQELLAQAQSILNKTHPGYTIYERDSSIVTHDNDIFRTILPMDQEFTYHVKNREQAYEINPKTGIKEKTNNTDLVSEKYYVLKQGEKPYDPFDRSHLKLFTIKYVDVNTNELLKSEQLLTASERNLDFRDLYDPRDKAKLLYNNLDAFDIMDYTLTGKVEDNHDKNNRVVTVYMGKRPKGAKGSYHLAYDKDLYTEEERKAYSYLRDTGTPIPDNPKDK

[3] = molecular target: T3, Sentrin-specific protease 8 (Homo sapiens, UniProt Q96LD8); format: functional;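 further: luminescence read-out of SENP8 inhibition, dose-response confirmation following an ultra-high-throughput screen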
T3 sequence (Q96LD8 whole entry): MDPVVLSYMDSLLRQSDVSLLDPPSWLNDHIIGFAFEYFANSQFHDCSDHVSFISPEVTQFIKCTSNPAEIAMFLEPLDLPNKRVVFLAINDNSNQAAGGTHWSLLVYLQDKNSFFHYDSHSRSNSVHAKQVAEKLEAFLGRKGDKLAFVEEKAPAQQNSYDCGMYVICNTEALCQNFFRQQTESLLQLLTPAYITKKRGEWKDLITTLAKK

Caspase-3 = molecular target: T4, Caspase-3 (Homo sapiens, UniProt P42574); format: functional;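 further: Dose-response selectivity test against caspase-3 for candidate inhibitors of sentrin-specific proteases (SENPs)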
T4 sequence (P42574 whole entry): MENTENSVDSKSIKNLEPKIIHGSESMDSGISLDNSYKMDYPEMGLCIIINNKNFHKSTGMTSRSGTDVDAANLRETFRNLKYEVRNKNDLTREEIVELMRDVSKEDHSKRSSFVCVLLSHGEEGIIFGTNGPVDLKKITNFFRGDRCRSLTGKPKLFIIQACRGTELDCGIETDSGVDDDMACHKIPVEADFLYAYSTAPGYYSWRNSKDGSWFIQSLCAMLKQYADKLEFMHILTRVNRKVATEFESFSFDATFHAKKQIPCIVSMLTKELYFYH

[4] = molecular target: High affinity nerve growth factor receptor (Homo sapiens, UniProt P04629); format: functional;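 further: NTRK1 tested as one member of a kinome-wide profiling panel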
[5] = molecular target: Mitogen-activated protein kinase 9 (Homo sapiens, UniProt P45984); format: functional;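 further: value from a kinome panel profiling assay, MAPK9 panel entry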
[6] = molecular target: Serine/threonine-protein kinase Nek4 (Homo sapiens, UniProt P51957); format: functional
[7] = molecular target: Dual specificity tyrosine-phosphorylation-regulated kinase 1A (Homo sapiens, UniProt Q13627); format: functional;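 further: measured against DYRK1A as one member of a broad kinome profiling panel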
[8] = molecular target: Mitogen-activated protein kinase kinase kinase kinase 4 (Homo sapiens, UniProt O95819); format: functional
[9] = molecular target: Casein kinase II subunit alpha (Homo sapiens, UniProt P68400); format: functional
[10] = molecular target: Calcium/calmodulin-dependent protein kinase type 1 (Homo sapiens, UniProt Q14012); format: functional
[11] = molecular target: Tyrosine-protein kinase Fyn (Homo sapiens, UniProt P06241); format: functional
[12] = molecular target: ALK tyrosine kinase receptor (Homo sapiens, UniProt Q9UM73); format: functional;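 further: ALK tested as one member of a kinase panel screen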
[13] = molecular target: Receptor-type tyrosine-protein kinase FLT3 (Homo sapiens, UniProt P36888); format: functional;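 further: FLT3 was tested as one member of a kinome-wide kinase panel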
[14] = molecular target: Serine/threonine-protein kinase PAK 4 (Homo sapiens, UniProt O96013); format: functional;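 further: value obtained within a kinome profiling panel in which PAK4 was one of the panel members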
[15] = molecular target: Serine/threonine-protein kinase TAO1 (Homo sapiens, UniProt Q7L7X3); format: functional
[16] = molecular target: MAP kinase-activated protein kinase 3 (Homo sapiens, UniProt Q16644); format: functional;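 further: value comes from a kinome-wide profiling panel in which MAPKAPK3 is one of the panel members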
[17] = molecular target: Serine/threonine-protein kinase PAK 1 (Homo sapiens, UniProt Q13153); format: functional
[18] = molecular target: Mitogen-activated protein kinase 1 (Homo sapiens, UniProt P28482); format: functional
[19] = molecular target: Mitogen-activated protein kinase 13 (Homo sapiens, UniProt O15264); format: functional
[20] = molecular target: Inhibitor of nuclear factor kappa-B kinase subunit alpha (Homo sapiens, UniProt O15111); format: functional
[21] = molecular target: Macrophage colony-stimulating factor 1 receptor (Homo sapiens, UniProt P07333); format: functional;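 further: value comes from the Navigating the Kinome screening panel, CSF1R member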
[22] = molecular target: MAP kinase-interacting serine/threonine-protein kinase 2 (Homo sapiens, UniProt Q9HBH9); format: functional
[23] = molecular target: Tyrosine-protein kinase Lyn (Homo sapiens, UniProt P07948); format: functional;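 further: lyn as one member of a kinase panel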
[24] = molecular target: Protein-tyrosine kinase 2-beta (Homo sapiens, UniProt Q14289); format: functional
[25] = molecular target: Mast/stem cell growth factor receptor Kit (Homo sapiens, UniProt P10721); format: functional;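 further: KIT entry within a kinase panel assay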

Sequence of Mitogen-activated protein kinase 9 (P45984 whole entry): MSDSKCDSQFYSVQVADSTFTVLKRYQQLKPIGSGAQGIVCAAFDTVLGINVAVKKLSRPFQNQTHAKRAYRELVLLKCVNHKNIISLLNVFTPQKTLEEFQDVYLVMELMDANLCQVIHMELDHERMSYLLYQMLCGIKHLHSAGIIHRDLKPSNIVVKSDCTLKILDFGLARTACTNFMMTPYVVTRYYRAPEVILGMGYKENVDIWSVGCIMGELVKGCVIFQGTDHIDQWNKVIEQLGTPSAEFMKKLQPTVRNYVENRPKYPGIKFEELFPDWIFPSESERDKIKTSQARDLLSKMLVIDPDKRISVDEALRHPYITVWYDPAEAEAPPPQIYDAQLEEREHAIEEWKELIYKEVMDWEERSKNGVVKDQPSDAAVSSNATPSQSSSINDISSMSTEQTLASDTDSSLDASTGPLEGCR
Sequence of Casein kinase II subunit alpha (P68400 whole entry): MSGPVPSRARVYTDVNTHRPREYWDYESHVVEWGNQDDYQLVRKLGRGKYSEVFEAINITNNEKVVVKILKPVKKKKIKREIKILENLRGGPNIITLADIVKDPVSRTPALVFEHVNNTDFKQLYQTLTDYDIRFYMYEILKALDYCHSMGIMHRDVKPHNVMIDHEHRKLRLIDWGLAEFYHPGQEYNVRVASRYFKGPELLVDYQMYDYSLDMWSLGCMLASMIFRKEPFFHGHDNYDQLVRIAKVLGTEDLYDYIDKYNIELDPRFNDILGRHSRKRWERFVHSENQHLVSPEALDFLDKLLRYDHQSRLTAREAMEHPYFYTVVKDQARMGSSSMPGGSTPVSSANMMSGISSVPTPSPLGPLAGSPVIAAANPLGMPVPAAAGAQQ
Sequence of ALK tyrosine kinase receptor (Q9UM73 whole entry): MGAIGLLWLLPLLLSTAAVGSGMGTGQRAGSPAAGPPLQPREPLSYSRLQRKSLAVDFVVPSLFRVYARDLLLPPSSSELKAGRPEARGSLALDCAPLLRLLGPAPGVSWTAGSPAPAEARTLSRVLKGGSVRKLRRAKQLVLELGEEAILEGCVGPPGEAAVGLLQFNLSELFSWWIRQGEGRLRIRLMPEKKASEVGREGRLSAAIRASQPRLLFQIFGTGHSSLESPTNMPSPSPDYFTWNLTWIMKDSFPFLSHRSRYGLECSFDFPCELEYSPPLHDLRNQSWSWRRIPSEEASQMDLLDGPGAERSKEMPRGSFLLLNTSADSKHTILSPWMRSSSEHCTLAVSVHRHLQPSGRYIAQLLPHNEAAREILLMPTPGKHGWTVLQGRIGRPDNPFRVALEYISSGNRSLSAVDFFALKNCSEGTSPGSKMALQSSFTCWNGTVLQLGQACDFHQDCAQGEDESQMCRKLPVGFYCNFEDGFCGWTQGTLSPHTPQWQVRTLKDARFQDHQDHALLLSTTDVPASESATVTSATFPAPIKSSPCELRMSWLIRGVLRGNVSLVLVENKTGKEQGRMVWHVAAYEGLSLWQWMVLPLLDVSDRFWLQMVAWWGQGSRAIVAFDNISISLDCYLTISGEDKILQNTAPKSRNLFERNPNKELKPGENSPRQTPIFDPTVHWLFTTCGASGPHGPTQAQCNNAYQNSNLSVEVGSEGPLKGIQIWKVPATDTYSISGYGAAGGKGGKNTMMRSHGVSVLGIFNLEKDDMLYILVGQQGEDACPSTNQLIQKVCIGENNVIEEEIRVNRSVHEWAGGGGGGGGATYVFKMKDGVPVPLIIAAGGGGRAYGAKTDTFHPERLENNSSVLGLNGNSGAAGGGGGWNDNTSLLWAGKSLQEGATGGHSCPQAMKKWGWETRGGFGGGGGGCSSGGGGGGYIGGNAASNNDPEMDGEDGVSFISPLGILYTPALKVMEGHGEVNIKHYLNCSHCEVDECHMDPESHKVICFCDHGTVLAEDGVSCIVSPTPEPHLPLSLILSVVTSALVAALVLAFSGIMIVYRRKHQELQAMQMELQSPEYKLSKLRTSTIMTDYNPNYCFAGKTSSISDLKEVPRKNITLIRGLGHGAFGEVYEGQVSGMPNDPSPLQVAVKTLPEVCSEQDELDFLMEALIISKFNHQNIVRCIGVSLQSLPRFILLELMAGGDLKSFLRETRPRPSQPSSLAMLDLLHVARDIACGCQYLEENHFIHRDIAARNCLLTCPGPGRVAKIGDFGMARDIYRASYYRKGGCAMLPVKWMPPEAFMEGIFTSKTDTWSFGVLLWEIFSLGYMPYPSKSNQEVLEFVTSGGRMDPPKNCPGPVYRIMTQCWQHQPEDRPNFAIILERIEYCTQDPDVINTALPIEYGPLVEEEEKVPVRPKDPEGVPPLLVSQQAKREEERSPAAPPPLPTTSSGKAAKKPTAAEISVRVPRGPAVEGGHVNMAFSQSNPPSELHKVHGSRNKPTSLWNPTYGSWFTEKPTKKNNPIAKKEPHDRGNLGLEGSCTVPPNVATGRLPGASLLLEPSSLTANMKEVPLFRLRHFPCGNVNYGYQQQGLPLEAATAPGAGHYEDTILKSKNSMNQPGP
Sequence of High affinity nerve growth factor receptor (P04629 whole entry): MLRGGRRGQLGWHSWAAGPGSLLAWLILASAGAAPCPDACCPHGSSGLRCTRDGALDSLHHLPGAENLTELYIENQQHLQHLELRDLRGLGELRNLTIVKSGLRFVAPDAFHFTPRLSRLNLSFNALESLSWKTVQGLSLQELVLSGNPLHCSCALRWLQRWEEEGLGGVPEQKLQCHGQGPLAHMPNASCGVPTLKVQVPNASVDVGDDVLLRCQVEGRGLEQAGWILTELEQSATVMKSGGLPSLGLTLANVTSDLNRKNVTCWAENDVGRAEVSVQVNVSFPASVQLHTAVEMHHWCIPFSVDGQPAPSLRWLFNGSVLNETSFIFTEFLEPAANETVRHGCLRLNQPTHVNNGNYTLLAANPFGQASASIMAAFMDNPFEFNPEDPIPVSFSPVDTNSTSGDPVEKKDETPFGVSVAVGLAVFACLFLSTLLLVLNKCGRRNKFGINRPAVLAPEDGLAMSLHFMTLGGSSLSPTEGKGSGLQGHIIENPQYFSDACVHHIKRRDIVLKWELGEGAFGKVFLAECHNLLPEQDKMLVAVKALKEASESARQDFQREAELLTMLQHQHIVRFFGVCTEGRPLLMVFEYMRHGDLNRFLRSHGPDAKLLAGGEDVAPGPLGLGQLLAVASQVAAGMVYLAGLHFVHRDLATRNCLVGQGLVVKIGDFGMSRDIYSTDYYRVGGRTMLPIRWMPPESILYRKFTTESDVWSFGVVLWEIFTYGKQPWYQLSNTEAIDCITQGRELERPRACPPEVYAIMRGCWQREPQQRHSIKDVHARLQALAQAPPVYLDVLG
Sequence of Mitogen-activated protein kinase kinase kinase kinase 4 (O95819 whole entry): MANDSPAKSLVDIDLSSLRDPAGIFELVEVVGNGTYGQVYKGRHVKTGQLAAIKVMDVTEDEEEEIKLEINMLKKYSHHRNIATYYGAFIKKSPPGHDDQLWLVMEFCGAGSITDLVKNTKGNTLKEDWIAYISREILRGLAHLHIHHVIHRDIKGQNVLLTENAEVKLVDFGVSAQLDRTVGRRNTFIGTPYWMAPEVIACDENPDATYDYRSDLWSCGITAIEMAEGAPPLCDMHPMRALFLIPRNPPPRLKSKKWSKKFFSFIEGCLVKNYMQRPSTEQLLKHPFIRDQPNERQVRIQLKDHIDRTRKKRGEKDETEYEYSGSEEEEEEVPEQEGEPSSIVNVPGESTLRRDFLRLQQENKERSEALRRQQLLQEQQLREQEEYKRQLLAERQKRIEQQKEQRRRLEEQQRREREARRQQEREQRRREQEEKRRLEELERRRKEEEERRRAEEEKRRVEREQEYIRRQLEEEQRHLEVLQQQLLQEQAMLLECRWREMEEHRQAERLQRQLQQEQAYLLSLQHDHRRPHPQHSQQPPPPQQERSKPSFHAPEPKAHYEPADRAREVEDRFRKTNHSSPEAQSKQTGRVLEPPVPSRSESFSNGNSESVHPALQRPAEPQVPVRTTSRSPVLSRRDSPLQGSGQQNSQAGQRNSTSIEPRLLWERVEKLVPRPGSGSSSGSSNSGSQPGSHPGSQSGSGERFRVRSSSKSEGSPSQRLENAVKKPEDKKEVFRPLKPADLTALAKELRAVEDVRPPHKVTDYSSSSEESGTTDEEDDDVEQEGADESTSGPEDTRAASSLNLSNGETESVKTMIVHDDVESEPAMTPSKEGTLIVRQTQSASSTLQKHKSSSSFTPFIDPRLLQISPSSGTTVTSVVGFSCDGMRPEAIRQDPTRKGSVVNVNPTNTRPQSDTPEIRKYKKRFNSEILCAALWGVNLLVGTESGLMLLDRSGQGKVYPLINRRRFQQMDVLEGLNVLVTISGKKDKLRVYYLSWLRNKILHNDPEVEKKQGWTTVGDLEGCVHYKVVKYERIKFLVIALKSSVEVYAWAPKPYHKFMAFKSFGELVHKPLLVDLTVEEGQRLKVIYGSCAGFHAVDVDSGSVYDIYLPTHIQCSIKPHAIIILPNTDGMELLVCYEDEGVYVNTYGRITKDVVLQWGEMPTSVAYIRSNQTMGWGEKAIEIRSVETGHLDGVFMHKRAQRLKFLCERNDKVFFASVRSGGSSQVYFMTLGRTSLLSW
Sequence of Serine/threonine-protein kinase PAK 4 (O96013 whole entry): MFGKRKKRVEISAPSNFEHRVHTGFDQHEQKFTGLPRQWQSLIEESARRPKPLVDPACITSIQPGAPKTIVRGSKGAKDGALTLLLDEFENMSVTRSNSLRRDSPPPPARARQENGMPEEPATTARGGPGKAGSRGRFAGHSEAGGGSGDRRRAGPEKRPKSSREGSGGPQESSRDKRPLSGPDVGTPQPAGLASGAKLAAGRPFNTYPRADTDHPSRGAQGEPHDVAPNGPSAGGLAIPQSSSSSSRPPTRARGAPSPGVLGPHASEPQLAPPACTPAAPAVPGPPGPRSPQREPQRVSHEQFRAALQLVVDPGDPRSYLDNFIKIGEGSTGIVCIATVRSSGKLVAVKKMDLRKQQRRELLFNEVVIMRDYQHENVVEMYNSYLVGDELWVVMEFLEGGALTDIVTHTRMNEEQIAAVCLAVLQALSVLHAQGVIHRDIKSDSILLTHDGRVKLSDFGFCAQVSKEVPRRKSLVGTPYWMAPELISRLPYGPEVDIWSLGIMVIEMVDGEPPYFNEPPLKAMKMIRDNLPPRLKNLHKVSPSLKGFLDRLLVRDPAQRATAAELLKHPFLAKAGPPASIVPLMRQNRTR

O=[N+]([O-])c1c(Nc2ccccn2)cc(Cl)c2nonc12
active: IC50 (cells) 0.32 µM

CC[C@@H](C)[C@H](CNC)NC[C@@H](Cc1cccc2ccccc12)NCCc1cccc(C(F)(F)F)c1
active: EC50 [1] 8.36 µM
inactive: EC50 (HEK293) > 54.7 µM

Cc1ccc(S(=O)(=O)/N=C2\C=C(Nc3cccc(C(=O)O)c3)C(=O)c3ccccc32)cc1
active: EC50 (Streptokinase A) 47.3 µM
inactive: IC50 [2] 42.4 µM

Cc1ccc(C(=O)NC2(O)C(=O)c3ccccc3C2=O)cc1C
active: IC50 [3] 4.89 µM
inactive: IC50 (Caspase-3) > 100 µM

CC(C)(CO)CNc1nccc(-c2c(-c3ccc(F)cc3)nc3c(CC4CC4)nccn23)n1
inactive: Ki [4] > 2.51 µM | Ki [6] > 6.31 µM | Ki [9] > 6.31 µM | Ki [10] > 5.01 µM | Ki [11] > 0.794 µM | Ki [12] > 1.26 µM | Ki [13] > 2.51 µM | Ki [14] > 5.01 µM | Ki [16] > 10 µM | Ki [17] > 10 µM | Ki [19] > 7.94 µM | Ki [20] > 3.98 µM | Ki [21] > 2.51 µM | Ki [22] > 10 µM | Ki [23] > 1.58 µM | Ki [24] > 1.58 µM | Ki [25] > 1.26 µM
active: Ki [5] 0.0316 µM | Ki [7] 2.51 µM | Ki [8] 3.98 µM | Ki [15] 7.94 µM | Ki [18] 6.31 µM
